According to ChEMBL document CHEMBL5518247 (J Med Chem, 2024):

Key:
[1] = Inhibition of recombinant PKCgamma (unknown origin) expressed in baculovirus infected in Sf9 cells using biotin-Ahx-peptide as substrate; parameters: species or system Homo sapiens
[2] = Oral bioavailability in ICR mouse at 20 mg/kg measured up to 48 hrs by LC-MS/MS analysis; assay type: ADME, organism-based; details: in vivo
[3] = Oral absorption in C57BL/6J mouse at 20 mg/kg measured up to 48 hrs by LC-MS/MS analysis; assay type: ADME, organism-based; details: in vivo

Structure (SMILES)	IC50 [1]	bioavailability [2]	Fa at 48 h [3]
Cc1n[nH]c2ccc(-c3cncc(OC[C@H](N)Cc4c[nH]c5ccccc45)c3)cc12	1400 nM		
C=CC(=O)Nc1ccc2[nH]c(=O)n(C3CCN(Cc4ccc(-c5nc6cc[nH]c(=O)c6cc5-c5ccccc5)cc4)CC3)c2c1 [Borussertib]		< 5%	39.6%
